Test system: 3C proteinase (Hepatitis A virus)
Experiment: Reversible inhibitory activity against Protease at a concentration 100 uM
Conditions: Hepatovirus A

inhibition | Structure (SMILES)
1% | CC(=O)N[C@@H](CC(C)C)C(=O)N[C@@H](C)C(=O)N[C@@H](C)C(=O)N[C@@H](CCC(=O)N(C)C)C(=O)Cn1nnc(C(=O)O)c1C(=O)O
9% | COC(=O)c1nnn(CC(=O)[C@H](CCC(=O)N(C)C)NC(=O)[C@H](C)NC(=O)[C@H](C)NC(=O)[C@H](CC(C)C)NC(C)=O)c1C(=O)OC
14% | COC(=O)c1nnn(CC(=O)[C@H](C[C@@H]2CCNC2=O)NC(=O)[C@H](C)NC(=O)[C@H](C)NC(=O)[C@H](CC(C)C)NC(C)=O)c1C(=O)OC

Source: ChEMBL document CHEMBL1146790, “Structural variations in keto-glutamines for improved inhibition against hepatitis A virus 3C proteinase” (Bioorg Med Chem Lett, 2004)
